Measured values taken from patent publication US4091097A, “Treatment of elevated histamine and uric acid levels” (Zaidan Hojin Biseibutsu Kagaku Kenkyu Kai, priority 1973, dated 1978).
Where two headings read alike, the source gives them in different places.

Legend:
[1] = system: pyrexia induced by TTG No. 2; experiment: Antipyretic Activity in Pyrexia-Induced Rabbits; format: in vivo, Japanese rabbits; details: 200 mg./kg. oral
Procedure: Common white male Japanese rabbits, 2.0 - 3.0 kg. body weight, were injected through the ear vein with 20 μg./kg. of a pyrexia inducer TTG No. 2, purified polysaccharide preparation obtained from Pseudomonas aeruginosa (marketed by Fujisawa Pharmaceutical Company, Japan), and the body temperature was monitored with a rectal thermister-type thermometer. Three hours prior to the TTG injection four rabbits in each experimental section orally received the test drug in the dose of 200 mg./kg. One group received aspirin in a dose of 100 mg./kg and a control group no drug.

[2] = system: acetic acid-induced stretching movements; experiment: Analgesic Activity in mice (acetic acid stretching); format: in vivo, mice (DDY Strain); details: control (no drug) 53
Procedure: Male mice of the DDY Strain having mean body weight of 20 g. were divided to the groups of 10 animals each, to which compounds of this invention or aminopyrine in saline solution were administered intraperitoneally (i.p.). The dosage was 200, 50 or 12.5 mg./kg. Then 30 minutes later, 0.2 ml. per 20 g. body weight of 0.7% acetic acid in saline was injected intraperitoneally and the number of characteristic stretching movements counted for 20 minute period and compared with a control group receiving no analgesic.

histidine decarboxylase = biological target: T1, histidine decarboxylase (Rattus norvegicus, UniProt P16453); experiment: Inhibition of Histidine Decarboxylase (14C-histamine formation); format: biochemical, fetal rats
T1 construct: a crude enzyme preparation obtained from fetal rats; from tissue
T1 sequence (P16453 1-656): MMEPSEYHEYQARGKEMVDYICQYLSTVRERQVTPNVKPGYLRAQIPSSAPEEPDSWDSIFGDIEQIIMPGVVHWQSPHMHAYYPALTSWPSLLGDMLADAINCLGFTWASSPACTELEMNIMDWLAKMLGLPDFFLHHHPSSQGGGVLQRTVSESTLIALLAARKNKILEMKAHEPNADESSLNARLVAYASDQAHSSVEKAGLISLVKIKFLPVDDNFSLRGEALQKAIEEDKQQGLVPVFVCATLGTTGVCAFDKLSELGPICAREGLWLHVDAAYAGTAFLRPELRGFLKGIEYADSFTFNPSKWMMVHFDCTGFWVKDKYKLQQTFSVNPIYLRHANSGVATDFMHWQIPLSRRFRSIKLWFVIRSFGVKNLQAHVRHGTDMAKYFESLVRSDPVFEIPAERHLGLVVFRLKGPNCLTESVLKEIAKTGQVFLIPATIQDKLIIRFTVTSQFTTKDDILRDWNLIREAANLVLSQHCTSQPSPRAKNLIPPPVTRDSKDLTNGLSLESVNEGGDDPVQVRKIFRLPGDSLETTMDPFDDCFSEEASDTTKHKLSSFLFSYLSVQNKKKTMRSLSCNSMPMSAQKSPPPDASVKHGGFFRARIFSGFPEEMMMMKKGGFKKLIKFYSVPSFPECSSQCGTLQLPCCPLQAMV
Procedure: After two hours of incubation at 37° C., the histamine 2-^14 C formed was collected on an ion exchange resin ("Amberlite" CG-50, ammonia type) from which, after washing with water, the histamine was liberated in 1N aqueous ammonia solution and radioactivity was measured.

mice and rats = details: in vivo
Procedure: The acute toxicity was determined for oral and intraperitoneal administration with mice and rats (6 mice and 2 rats in one dose group), and the LD50 value, i.e., the single application dose killing 50% of the test animals, was estimated.

[3] = 2 hrs. after TTG, control (no drug) 1.2
[4] = 4 hrs. after TTG, control (no drug) 1.6
[5] = pH 6.8, two hours at 37° C., read-out: Histidine Decarboxylase Inhibition ID50

Cc1c(N(C)C)c(=O)n(-c2ccccc2)n1C [Aminopyrine, reference compound]
Antipyretic Activity: Elevation of Body Temperature [1, 3]: 0.4 °C
Antipyretic Activity: Elevation of Body Temperature [1, 4]: 0.3 °C
Analgesic Activity: Stretching Count (20 minutes) ([2]; 50 mg./kg. i.p.): 8
Analgesic Activity: Stretching Count (20 minutes) ([2]; 200 mg./kg. i.p.): 2

O=C(Nc1ccc(O)c(Cl)c1)c1ccccc1O [Compound 2]
IC50 (histidine decarboxylase; [5]): 2.5 µM
Antipyretic Activity: Elevation of Body Temperature [1, 3]: 0.6 °C
Antipyretic Activity: Elevation of Body Temperature [1, 4]: 0.5 °C
Analgesic Activity: Stretching Count (20 minutes) ([2]; 50 mg./kg. i.p.): 30
Analgesic Activity: Stretching Count (20 minutes) ([2]; 200 mg./kg. i.p.): 12

O=C(Nc1cc(Br)c(O)c(Br)c1)c1ccccc1O [Compound 3]
IC50 (histidine decarboxylase): 0.023 µM
Antipyretic Activity: Elevation of Body Temperature [1, 3]: 0.6 °C
Antipyretic Activity: Elevation of Body Temperature [1, 4]: 0.5 °C
comparative toxicity (mice and rats): comparatively more toxic than the others
Analgesic Activity: Stretching Count (20 minutes) ([2]; 50 mg./kg. i.p.): 17
Analgesic Activity: Stretching Count (20 minutes) ([2]; 200 mg./kg. i.p.): 6

O=C(Nc1cc(Cl)c(O)c(Cl)c1)c1ccc(O)cc1O [Compound 4]
IC50 (histidine decarboxylase; [5]): 0.028 µM
Antipyretic Activity: Elevation of Body Temperature [1, 3]: 0.5 °C
Antipyretic Activity: Elevation of Body Temperature [1, 4]: 0.4 °C
Analgesic Activity: Stretching Count (20 minutes) ([2]; 50 mg./kg. i.p.): 13
Analgesic Activity: Stretching Count (20 minutes) ([2]; 200 mg./kg. i.p.): 6

O=C(Nc1ccc(O)c(Br)c1)c1ccc(O)cc1O [Compound 5]
IC50 (histidine decarboxylase; [5]): 0.03 µM
Antipyretic Activity: Elevation of Body Temperature [1, 3]: 0.5 °C
Antipyretic Activity: Elevation of Body Temperature [1, 4]: 0.4 °C
comparative toxicity (mice and rats): comparatively more toxic than the others
Analgesic Activity: Stretching Count (20 minutes) ([2]; 50 mg./kg. i.p.): 14
Analgesic Activity: Stretching Count (20 minutes) ([2]; 200 mg./kg. i.p.): 6

O=C(Nc1cc(Br)c(O)c(C(=O)O)c1)c1ccccc1O [Compound 6]
IC50 (histidine decarboxylase; [5]): 0.26 µM
Antipyretic Activity: Elevation of Body Temperature [1, 3]: 0.5 °C
Antipyretic Activity: Elevation of Body Temperature [1, 4]: 0.5 °C
comparative toxicity (mice and rats): comparatively more toxic than the others
Analgesic Activity: Stretching Count (20 minutes) ([2]; 50 mg./kg. i.p.): 25
Analgesic Activity: Stretching Count (20 minutes) ([2]; 200 mg./kg. i.p.): 12

O=C(Nc1cc(Cl)c(O)c(C(=O)O)c1)c1ccccc1O [Compound 7]
IC50 (histidine decarboxylase; [5]): 0.11 µM
Antipyretic Activity: Elevation of Body Temperature [1, 3]: 0.6 °C
Antipyretic Activity: Elevation of Body Temperature [1, 4]: 0.5 °C
Analgesic Activity: Stretching Count (20 minutes) ([2]; 50 mg./kg. i.p.): 40
Analgesic Activity: Stretching Count (20 minutes) ([2]; 200 mg./kg. i.p.): 14

Cc1ccc(C(=O)Nc2cc(Cl)c(O)c(Cl)c2)c(O)c1 [Compound 8]
IC50 (histidine decarboxylase): 0.096 µM
Antipyretic Activity: Elevation of Body Temperature [1, 3]: 0.6 °C
Antipyretic Activity: Elevation of Body Temperature [1, 4]: 0.5 °C
Analgesic Activity: Stretching Count (20 minutes) ([2]; 50 mg./kg. i.p.): 40
Analgesic Activity: Stretching Count (20 minutes) ([2]; 200 mg./kg. i.p.): 21

O=C(Nc1cc(Cl)c(O)c(Cl)c1)c1ccc(F)cc1O [Compound 9]
IC50 (histidine decarboxylase; [5]): 0.089 µM
Antipyretic Activity: Elevation of Body Temperature [1, 3]: 0.6 °C
Antipyretic Activity: Elevation of Body Temperature [1, 4]: 0.6 °C
Analgesic Activity: Stretching Count (20 minutes) ([2]; 50 mg./kg. i.p.): 35
Analgesic Activity: Stretching Count (20 minutes) ([2]; 200 mg./kg. i.p.): 20

O=C(Nc1cc(Cl)c(O)c(Cl)c1)c1cc(F)ccc1O [Compound 10]
IC50 (histidine decarboxylase; [5]): 0.23 µM
Antipyretic Activity: Elevation of Body Temperature [1, 3]: 0.6 °C
Antipyretic Activity: Elevation of Body Temperature [1, 4]: 0.5 °C
Analgesic Activity: Stretching Count (20 minutes) ([2]; 50 mg./kg. i.p.): 35
Analgesic Activity: Stretching Count (20 minutes) ([2]; 200 mg./kg. i.p.): 20

COc1c(Cl)cc(NC(=O)c2ccccc2O)cc1Cl [Compound 11]
IC50 (histidine decarboxylase; [5]): 0.21 µM

Cc1cc(NC(=O)c2ccccc2O)cc(Cl)c1O [Compound 12]
IC50 (histidine decarboxylase; [5]): 0.12 µM

O=C(Nc1cc(F)c(O)c(Cl)c1)c1ccccc1O [Compound 13]
IC50 (histidine decarboxylase; [5]): 0.23 µM

CCOc1c(Cl)cc(NC(=O)c2ccc(O)cc2O)cc1Br [Compound 15]
IC50 (histidine decarboxylase; [5]): 0.31 µM
comparative toxicity (mice and rats): comparatively more toxic than the others

CCc1cc(NC(=O)c2ccc(O)cc2O)cc(F)c1OC [Compound 16]
IC50 (histidine decarboxylase; [5]): 0.81 µM

CCc1ccc(C(=O)Nc2cc(Br)c(O)c(CC)c2)c(O)c1 [Compound 17]
IC50 (histidine decarboxylase; [5]): 0.46 µM

CCc1ccc(O)c(C(=O)Nc2cc(Br)c(O)c(CC)c2)c1 [Compound 18]
IC50 (histidine decarboxylase; [5]): 0.71 µM

Cc1cc(NC(=O)c2ccc(Br)cc2O)cc(C(=O)O)c1O [Compound 19]
IC50 (histidine decarboxylase; [5]): 0.33 µM
comparative toxicity (mice and rats): comparatively more toxic than the others

O=C(Nc1ccc(O)c(Cl)c1)c1cc(Br)ccc1O [Compound 20]
IC50 (histidine decarboxylase): 0.58 µM
comparative toxicity (mice and rats): comparatively more toxic than the others

CCOc1ccc(NC(=O)c2ccc(F)cc2O)cc1Cl [Compound 21]
IC50 (histidine decarboxylase; [5]): 0.5 µM

Cc1ccc(C(=O)Nc2cc(Br)c(O)c(Br)c2)c(O)c1 [Compound 22]
IC50 (histidine decarboxylase): 0.8 µM
comparative toxicity (mice and rats): comparatively more toxic than the others

O=C(Nc1cc(Cl)c(O)c(C(=O)O)c1)c1cc(O)ccc1O [Compound 23]
IC50 (histidine decarboxylase; [5]): 0.5 µM

Nc1c(Cl)cc(NC(=O)c2ccccc2O)cc1Cl [Compound 24]
IC50 (histidine decarboxylase; [5]): 0.14 µM
comparative toxicity (mice and rats): comparatively more toxic than the others

COc1c(F)cc(NC(=O)c2cc(Cl)ccc2O)cc1Cl [Compound 26]
IC50 (histidine decarboxylase; [5]): 0.69 µM

CCc1cc(NC(=O)c2ccc(C)cc2O)cc(C(=O)OC)c1O [Compound 28]
IC50 (histidine decarboxylase; [5]): 0.79 µM

CCc1cc(NC(=O)c2cc(C)ccc2O)cc(C(=O)OC)c1O [Compound 29]
IC50 (histidine decarboxylase; [5]): 0.98 µM

CC(=O)Oc1ccccc1C(=O)Nc1cc(Cl)c(OC(C)=O)c(Cl)c1 [Compound 30]
IC50 (histidine decarboxylase; [5]): 0.024 µM
Antipyretic Activity: Elevation of Body Temperature [1, 3]: 0.5 °C
Antipyretic Activity: Elevation of Body Temperature [1, 4]: 0.5 °C
Analgesic Activity: Stretching Count (20 minutes) ([2]; 50 mg./kg. i.p.): 14
Analgesic Activity: Stretching Count (20 minutes) ([2]; 200 mg./kg. i.p.): 4

CC(C)CC(=O)Oc1ccccc1C(=O)Nc1cc(Cl)c(OC(=O)CC(C)C)c(Cl)c1 [Compound 31]
IC50 (histidine decarboxylase; [5]): 0.017 µM
Antipyretic Activity: Elevation of Body Temperature [1, 3]: 0.6 °C
Antipyretic Activity: Elevation of Body Temperature [1, 4]: 0.5 °C
Analgesic Activity: Stretching Count (20 minutes) ([2]; 50 mg./kg. i.p.): 13
Analgesic Activity: Stretching Count (20 minutes) ([2]; 200 mg./kg. i.p.): 4

CC(=O)Oc1cc(O)ccc1C(=O)Nc1cc(C)c(OC(C)=O)c(Cl)c1 [Compound 34]
IC50 (histidine decarboxylase; [5]): 0.39 µM

CC(=O)Oc1ccc(O)cc1C(=O)Nc1cc(C)c(OC(C)=O)c(Cl)c1 [Compound 35]
IC50 (histidine decarboxylase; [5]): 0.6 µM

CCC(=O)Oc1ccc(NC(=O)c2ccc(O)cc2OC(=O)CC)cc1Br [Compound 36]
IC50 (histidine decarboxylase; [5]): 0.49 µM

CC(=O)Oc1cc(F)ccc1C(=O)Nc1cc(C)c(OC(C)=O)c(Br)c1 [Compound 37]
IC50 (histidine decarboxylase; [5]): 0.42 µM

CCC(=O)Oc1ccccc1C(=O)Nc1cc(Cl)c(N)c(Cl)c1 [Compound 38]
IC50 (histidine decarboxylase; [5]): 0.2 µM

CC(=O)Oc1ccc(C(=O)Nc2cc(Cl)c(O)c(Cl)c2)c(OC(C)=O)c1 [Compound 39]
IC50 (histidine decarboxylase; [5]): 0.19 µM

CC(=O)Oc1ccc(OC(C)=O)c(C(=O)Nc2cc(Cl)c(O)c(Cl)c2)c1 [Compound 40]
IC50 (histidine decarboxylase; [5]): 0.31 µM

CCOC(=O)c1cc(NC(=O)c2ccccc2OC(=O)c2ccccc2)cc(Cl)c1O [Compound 41]
IC50 (histidine decarboxylase; [5]): 0.32 µM

CCCC(=O)Oc1ccc(C(=O)Nc2cc(Cl)c(N)c(C(=O)OC)c2)c(OC(=O)CCC)c1 [Compound 42]
IC50 (histidine decarboxylase; [5]): 0.51 µM
comparative toxicity (mice and rats): comparatively more toxic than the others

CCC(=O)Oc1ccc(OC(=O)CC)c(C(=O)Nc2cc(Cl)c(N)c(C(=O)OC)c2)c1 [Compound 43]
IC50 (histidine decarboxylase; [5]): 0.53 µM
comparative toxicity (mice and rats): comparatively more toxic than the others

CCOC(=O)c1cc(NC(=O)c2ccccc2OC(C)=O)cc(Cl)c1O [Compound 44]
IC50 (histidine decarboxylase; [5]): 0.23 µM
